Measurements reported in ChEMBL document CHEMBL1201862, “PubChem BioAssay data set” (2004).
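Cultured in 96-well plates, cells were exposed to test compound for 48 hours across five concentrations. Abbreviation: GI50, concentration required for 50% inhibition of growth.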 The source made the active and inactive calls. No stated cut-off is given here; in the data, active = GI50 up to about 1.1 µM and inactive = higher.

What was measured:
Assay in all cases: DTP human tumour cell line panel, 48 h
COLO 205 = tested on: COLO 205
SK-MEL-5 = tested on: SK-MEL-5
Malme-3M = tested on: Malme-3M
K562 = tested on: K562
DMS-273 = tested on: DMS-273
TK-10 = tested on: TK-10
SK-MEL-28 = tested on: SK-MEL-28
NCI-H460 = tested on: NCI-H460
HOP-62 = tested on: HOP-62
HCT-116 = tested on: HCT-116
EKVX = tested on: EKVX
SNB-19 = tested on: SNB-19
OVCAR-3 = tested on: OVCAR-3
NCI-H23 = tested on: NCI-H23
HCT-15 = tested on: HCT-15
SN12C = tested on: SN12C
RXF 393 = tested on: RXF 393
BT-549 = tested on: BT-549
PC-3 = tested on: PC-3
MDA-MB-435 = tested on: MDA-MB-435

SMILES	GI50 (COLO 205)	GI50 (SK-MEL-5)	GI50 (Malme-3M)	GI50 (K562)	GI50 (DMS-273)	GI50 (TK-10)	GI50 (SK-MEL-28)	GI50 (NCI-H460)	GI50 (HOP-62)	GI50 (HCT-116)	GI50 (EKVX)	GI50 (SNB-19)	GI50 (OVCAR-3)	GI50 (NCI-H23)	GI50 (HCT-15) [µM]	GI50 (SN12C)	GI50 (RXF 393)	GI50 (BT-549)	GI50 (PC-3)	GI50 (MDA-MB-435)
Nc1ncn([C@@H]2C=C(CO)C(O)C2O)c(=O)n1 (stereo partly drawn)	37.8 µM (inactive)	> 100 µM (inactive)	> 100 µM (inactive)	43.6 µM (inactive)	> 100 µM (inactive)	> 100 µM (inactive)	> 100 µM (inactive)	28.6 µM (inactive)	53.7 µM (inactive)	39.2 µM (inactive)	> 100 µM (inactive)	> 100 µM (inactive)	> 100 µM (inactive)	> 100 µM (inactive)	60.3	> 100 µM (inactive)	–	–	–	–
COc1cccc(C2CC23C(=O)NC(=O)NC3=O)c1 (stereo not drawn)	> 100 µM (inactive)	> 100 µM (inactive)	> 100 µM (inactive)	> 100 µM (inactive)	> 100 µM (inactive)	> 100 µM (inactive)	> 100 µM (inactive)	> 100 µM (inactive)	> 100 µM (inactive)	> 100 µM (inactive)	> 100 µM (inactive)	> 100 µM (inactive)	> 100 µM (inactive)	> 100 µM (inactive)	> 100	> 100 µM (inactive)	–	–	–	–
CCC1CN2CCc3cc(OC)c(OC)cc3C2CC1CC1c2cc(OC)c(OC)cc2CCN1C(=O)CNC(=O)OC(C)(C)C (stereo not drawn)	3.44 µM (inactive)	6 µM (inactive)	19.5 µM (inactive)	3.34 µM (inactive)	12 µM (inactive)	28.6 µM (inactive)	23.8 µM (inactive)	6.49 µM (inactive)	–	–	5.05 µM (inactive)	13.9 µM (inactive)	11.9 µM (inactive)	21.4 µM (inactive)	12.3	24.1 µM (inactive)	17.5 µM (inactive)	–	–	–
Nc1nc(SCCC/C=C/I)nc2c1ncn2C1OC(CO)C(O)C1O (stereo not drawn)	> 202 µM (inactive)	> 202 µM (inactive)	> 202 µM (inactive)	> 202 µM (inactive)	> 202 µM (inactive)	> 202 µM (inactive)	> 202 µM (inactive)	> 202 µM (inactive)	> 202 µM (inactive)	> 202 µM (inactive)	–	> 202 µM (inactive)	> 202 µM (inactive)	> 202 µM (inactive)	> 202	> 202 µM (inactive)	–	–	–	–
Cc1cccc2c1Sc1ccccc1C2NC(=O)CCN(C)C (stereo not drawn)	> 100 µM (inactive)	> 100 µM (inactive)	–	> 100 µM (inactive)	> 100 µM (inactive)	> 100 µM (inactive)	> 100 µM (inactive)	> 100 µM (inactive)	> 100 µM (inactive)	> 100 µM (inactive)	> 100 µM (inactive)	> 100 µM (inactive)	–	> 100 µM (inactive)	> 100	> 100 µM (inactive)	> 100 µM (inactive)	–	–	–
O=C(Nc1ccc2ccccc2c1)c1cc2cc(CCl)ccc2oc1=O	> 100 µM (inactive)	> 100 µM (inactive)	87.7 µM (inactive)	54 µM (inactive)	–	33.2 µM (inactive)	> 100 µM (inactive)	> 100 µM (inactive)	53.5 µM (inactive)	> 100 µM (inactive)	> 100 µM (inactive)	27.6 µM (inactive)	> 100 µM (inactive)	19 µM (inactive)	> 100	> 100 µM (inactive)	22 µM (inactive)	44 µM (inactive)	> 100 µM (inactive)	> 100 µM (inactive)
Cc1cc(C)nc(SCCc2cccc[n+]2C)n1	> 100 µM (inactive)	> 100 µM (inactive)	> 100 µM (inactive)	> 100 µM (inactive)	–	> 100 µM (inactive)	> 100 µM (inactive)	> 100 µM (inactive)	> 100 µM (inactive)	> 100 µM (inactive)	24.9 µM (inactive)	> 100 µM (inactive)	> 100 µM (inactive)	> 100 µM (inactive)	> 100	> 100 µM (inactive)	> 100 µM (inactive)	> 100 µM (inactive)	> 100 µM (inactive)	> 100 µM (inactive)
CC1C[C@]2(C[C@@H](C)C(=O)O2)O[C@@H]2CC3(C)[C@@H]4CCC5C(C)(C)OC(=O)C[C@H]6OO[C@]4(CC[C@]3(C)C12)CC56O (stereo partly drawn)	–	> 100 µM (inactive)	> 100 µM (inactive)	–	> 100 µM (inactive)	> 100 µM (inactive)	> 100 µM (inactive)	> 100 µM (inactive)	–	–	–	> 100 µM (inactive)	> 100 µM (inactive)	> 100 µM (inactive)	> 100	> 100 µM (inactive)	> 100 µM (inactive)	–	–	–
CC1=CCC[C@@H]2[C@@](C)(Cc3cc(O)ccc3O)[C@H](C)CC[C@@]12C	18.2 µM (inactive)	5.43 µM (inactive)	16.4 µM (inactive)	3.48 µM (inactive)	–	9.08 µM (inactive)	8.81 µM (inactive)	5.83 µM (inactive)	9.62 µM (inactive)	5.13 µM (inactive)	6.5 µM (inactive)	7.57 µM (inactive)	4.69 µM (inactive)	5.87 µM (inactive)	5	9.2 µM (inactive)	6.44 µM (inactive)	5.47 µM (inactive)	4.33 µM (inactive)	5.2 µM (inactive)
CC(CN1NC12CCCC2)N1NC12CCCC2 (stereo not drawn)	> 100 µM (inactive)	> 100 µM (inactive)	> 100 µM (inactive)	> 100 µM (inactive)	–	> 100 µM (inactive)	> 100 µM (inactive)	> 100 µM (inactive)	> 100 µM (inactive)	> 100 µM (inactive)	> 100 µM (inactive)	> 100 µM (inactive)	> 100 µM (inactive)	> 100 µM (inactive)	> 100	> 100 µM (inactive)	> 100 µM (inactive)	> 100 µM (inactive)	> 100 µM (inactive)	> 100 µM (inactive)
C=C1C(=O)C23CC1C[C@H](OC(C)=O)[C@H]2C1(C)C(OC(C)=O)C[C@H](O)C(C)(C)[C@H]1C(=O)[C@@H]3OC(C)=O (stereo partly drawn)	2.17 µM (inactive)	13.9 µM (inactive)	2.17 µM (inactive)	1.95 µM (inactive)	–	2.28 µM (inactive)	4.59 µM (inactive)	17.5 µM (inactive)	25.2 µM (inactive)	2.22 µM (inactive)	6.84 µM (inactive)	18.5 µM (inactive)	5.71 µM (inactive)	3.58 µM (inactive)	4.37	4.76 µM (inactive)	3.09 µM (inactive)	2.84 µM (inactive)	10.3 µM (inactive)	3.09 µM (inactive)
CC(=O)n1nc(-c2ccccc2)n(/N=C/c2ccc([N+](=O)[O-])o2)c1=O	7.36 µM (inactive)	7.13 µM (inactive)	6.67 µM (inactive)	8.83 µM (inactive)	–	11.5 µM (inactive)	9.84 µM (inactive)	7.06 µM (inactive)	4.94 µM (inactive)	1.47 µM (inactive)	0.933 µM (active)	16.3 µM (inactive)	7.91 µM (inactive)	7.64 µM (inactive)	6.84	2.13 µM (inactive)	5.93 µM (inactive)	8.32 µM (inactive)	13.7 µM (inactive)	6.5 µM (inactive)
